Patent US10344060B2 (priority 2013, dated 2019)

Biological target: hNav1.7 (Homo sapiens, UniProt Q15858)
Experiment: cell-based
Format: cell-based
Conditions: for IC50: Table 12, PatchXpress, tonic block, read-out: PX hNav1.7 Tonic IC50; for Nav1.4/Nav1.7 / Nav1.5/Nav1.7: ratio of PX tonic IC50 values, Table 11

hNav1.7, sequence (Q15858 whole entry): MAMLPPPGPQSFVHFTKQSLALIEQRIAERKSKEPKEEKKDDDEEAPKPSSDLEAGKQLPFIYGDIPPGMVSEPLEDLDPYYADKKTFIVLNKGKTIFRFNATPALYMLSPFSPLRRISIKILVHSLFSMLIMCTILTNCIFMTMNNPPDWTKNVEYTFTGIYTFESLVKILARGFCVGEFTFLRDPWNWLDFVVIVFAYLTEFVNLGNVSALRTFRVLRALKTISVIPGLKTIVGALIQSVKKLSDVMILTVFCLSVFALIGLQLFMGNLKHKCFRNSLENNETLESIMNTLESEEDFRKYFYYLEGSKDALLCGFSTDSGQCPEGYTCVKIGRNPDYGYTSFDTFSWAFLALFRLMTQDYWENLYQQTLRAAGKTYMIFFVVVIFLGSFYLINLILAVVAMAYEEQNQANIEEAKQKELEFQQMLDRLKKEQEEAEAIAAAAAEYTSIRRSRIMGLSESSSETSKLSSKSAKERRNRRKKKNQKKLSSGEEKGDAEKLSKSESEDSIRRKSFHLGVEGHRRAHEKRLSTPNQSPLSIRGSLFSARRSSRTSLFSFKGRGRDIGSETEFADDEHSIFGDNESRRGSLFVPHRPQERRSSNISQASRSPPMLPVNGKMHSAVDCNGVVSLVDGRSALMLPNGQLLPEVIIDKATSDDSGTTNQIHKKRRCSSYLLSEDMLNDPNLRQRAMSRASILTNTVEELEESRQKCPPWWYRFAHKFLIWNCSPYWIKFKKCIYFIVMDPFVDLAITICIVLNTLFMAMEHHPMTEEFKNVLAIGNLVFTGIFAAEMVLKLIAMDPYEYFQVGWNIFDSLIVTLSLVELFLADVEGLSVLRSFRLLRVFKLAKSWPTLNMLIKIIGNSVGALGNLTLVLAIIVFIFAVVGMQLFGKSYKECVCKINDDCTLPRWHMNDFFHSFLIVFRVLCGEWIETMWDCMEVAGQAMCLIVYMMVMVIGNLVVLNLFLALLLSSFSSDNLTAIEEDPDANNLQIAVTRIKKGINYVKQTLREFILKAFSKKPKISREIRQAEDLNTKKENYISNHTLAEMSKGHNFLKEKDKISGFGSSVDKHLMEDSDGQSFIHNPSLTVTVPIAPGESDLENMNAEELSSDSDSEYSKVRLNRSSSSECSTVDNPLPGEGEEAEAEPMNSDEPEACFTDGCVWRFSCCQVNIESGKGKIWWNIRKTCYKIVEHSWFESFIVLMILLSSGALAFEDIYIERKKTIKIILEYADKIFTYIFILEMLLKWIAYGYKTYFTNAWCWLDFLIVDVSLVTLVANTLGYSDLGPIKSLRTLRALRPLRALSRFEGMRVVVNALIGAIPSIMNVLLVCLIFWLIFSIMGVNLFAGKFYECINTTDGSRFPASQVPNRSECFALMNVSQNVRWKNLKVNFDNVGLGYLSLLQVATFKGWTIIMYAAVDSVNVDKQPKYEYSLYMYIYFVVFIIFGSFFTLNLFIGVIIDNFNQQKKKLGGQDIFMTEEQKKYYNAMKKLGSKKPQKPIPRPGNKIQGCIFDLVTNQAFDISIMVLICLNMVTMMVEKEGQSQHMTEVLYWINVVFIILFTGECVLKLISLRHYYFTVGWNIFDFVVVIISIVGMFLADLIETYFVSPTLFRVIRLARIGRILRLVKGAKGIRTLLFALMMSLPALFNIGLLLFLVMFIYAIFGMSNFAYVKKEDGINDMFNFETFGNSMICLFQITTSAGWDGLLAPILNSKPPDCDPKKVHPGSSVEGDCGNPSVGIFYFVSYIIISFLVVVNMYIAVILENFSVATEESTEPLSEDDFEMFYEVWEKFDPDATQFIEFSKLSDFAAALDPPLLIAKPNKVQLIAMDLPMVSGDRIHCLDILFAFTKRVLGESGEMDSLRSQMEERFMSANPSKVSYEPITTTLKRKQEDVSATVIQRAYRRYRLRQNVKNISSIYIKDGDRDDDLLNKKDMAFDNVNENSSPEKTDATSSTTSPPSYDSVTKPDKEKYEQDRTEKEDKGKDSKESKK

| Compound | IC50 [µM] | Nav1.4/Nav1.7 | Nav1.5/Nav1.7 |
| --- | --- | --- | --- |
| C#CC[C@H](N)C(=O)N[C@@H](Cc1ccc(O)cc1)C(=O)N[C@H]1CSSC[C@@H]2NC(=O)[C@@H]3CSSC[C@@H](C(=O)N[C@@H](CCCNC(=N)N)C(=O)N[C@@H](CCCCN)C(=O)N[C@@H](CCC(=O)O)C(=O)N[C@H](C(N)=O)[C@@H](C)CC)NC(=O)[C@H](Cc4c[nH]c5ccccc45)NC(=O)[C@H](CC(C)C)NC(=O)[C@H](CCCCN)NC(=O)[C@H](CSSC[C@H](NC(=O)[C@H]([C@@H](C)O)NC(=O)[C@H](Cc4cccc5ccccc45)NC(=O)[C@H](CCCC)NC(=O)[C@H](Cc4c[nH]c5ccccc45)NC(=O)[C@H](CCCCN)NC(=O)[C@H](CCC(N)=O)NC1=O)C(=O)N[C@@H](CC(=O)O)C(=O)N[C@@H](CO)C(=O)N[C@@H](CCCCN)C(=O)N[C@@H](CCCNC(=N)N)C(=O)N[C@@H](C)C(=O)N3)NC(=O)[C@H](CCCNC(=N)N)NC(=O)[C@H](CC(C)C)NC(=O)CNC(=O)[C@H](CCC(=O)O)NC2=O [compound 846] | 0.825 |  |  |
| CCCC[C@@H]1NC(=O)[C@H](Cc2c[nH]c3ccccc23)NC(=O)[C@H](CCCCN)NC(=O)[C@H](CCC(N)=O)NC(=O)[C@@H](NC(=O)[C@H](Cc2ccc(O)cc2)NC(=O)[C@@H](N)CCCC)CSSC[C@@H]2NC(=O)[C@@H]3CSSC[C@@H](C(=O)N[C@@H](CCCNC(=N)N)C(=O)N[C@@H](CCCCN)C(=O)N[C@H](C(=O)N[C@H](C(N)=O)[C@@H](C)CC)[C@@H](C)CC)NC(=O)[C@H](Cc4c[nH]c5ccccc45)NC(=O)[C@H](CC(C)C)NC(=O)[C@H](CCCCN)NC(=O)[C@H](CSSC[C@H](NC(=O)[C@H]([C@@H](C)O)NC(=O)[C@H](Cc4c[nH]c5ccccc45)NC1=O)C(=O)N[C@@H](CC(=O)O)C(=O)N[C@@H](CO)C(=O)N[C@@H](CCCCN)C(=O)N[C@@H](CCCNC(=N)N)C(=O)N[C@@H](C)C(=O)N3)NC(=O)[C@H](CCCNC(=N)N)NC(=O)[C@H](CC(C)C)NC(=O)CNC(=O)[C@H](CCC(=O)O)NC2=O [compound 370] |  | 21 | 3729 |
| C#CC[C@H](N)C(=O)N[C@@H](Cc1ccc(O)cc1)C(=O)N[C@H]1CSSC[C@@H]2NC(=O)[C@@H]3CSSC[C@@H](C(=O)N[C@@H](CCCNC(=N)N)C(=O)N[C@@H](CCCCN)C(=O)N[C@@H](CCC(=O)O)C(=O)N[C@H](C(N)=O)[C@@H](C)CC)NC(=O)[C@H](Cc4cccc5ccccc45)NC(=O)[C@H](CC(C)C)NC(=O)[C@H](CCCCN)NC(=O)[C@H](CSSC[C@H](NC(=O)[C@H]([C@@H](C)O)NC(=O)[C@H](Cc4c[nH]c5ccccc45)NC(=O)[C@H](CCCC)NC(=O)[C@H](Cc4c[nH]c5ccccc45)NC(=O)[C@H](CCCCN)NC(=O)[C@H](CCC(N)=O)NC1=O)C(=O)N[C@@H](CC(=O)O)C(=O)N[C@@H](CO)C(=O)N[C@@H](CCCCN)C(=O)N[C@@H](CCCNC(=N)N)C(=O)N[C@@H](C)C(=O)N3)NC(=O)[C@H](CCCNC(=N)N)NC(=O)[C@H](CC(C)C)NC(=O)CNC(=O)[C@H](CCC(=O)O)NC2=O [compound 851] | 0.032 |  |  |
| C#CC[C@@H]1NC(=O)[C@@H]2CSSC[C@H](NC(=O)[C@H](CCC(=O)O)NC(=O)[C@@H](N)CC#N)C(=O)N[C@@H](CCC(N)=O)C(=O)N[C@@H](CCCCN)C(=O)N[C@@H](Cc3c[nH]c4ccccc34)C(=O)N[C@@H](CCCC)C(=O)N[C@@H](Cc3c[nH]c4ccccc34)C(=O)N[C@@H]([C@@H](C)O)C(=O)N[C@H]3CSSC[C@H](NC(=O)[C@H](CCCNC(=N)N)NC(=O)[C@H](CC(C)C)NC(=O)CNC1=O)C(=O)N[C@@H](CCCCN)C(=O)N[C@@H](CC(C)C)C(=O)N[C@@H](Cc1c[nH]c4ccccc14)C(=O)N[C@H](C(=O)N[C@@H](CCCNC(=N)N)C(=O)N[C@@H](CCCCN)C(=O)N[C@@H](CCC(=O)O)C(=O)N[C@H](C(N)=O)[C@@H](C)CC)CSSC[C@H](NC(=O)[C@H](CCC(=O)O)NC(=O)[C@H](CCCNC(=N)N)NC(=O)[C@H](CCC(=O)O)NC(=O)[C@H](CO)NC(=O)[C@H](CC(=O)O)NC3=O)C(=O)N2 [compound 756] | > 1 |  |  |
| C#CC[C@H](N)C(=O)N[C@@H](Cc1ccc(O)cc1)C(=O)N[C@H]1CSSC[C@@H]2NC(=O)[C@@H]3CSSC[C@@H](C(=O)N[C@@H](CCCNC(=N)N)C(=O)N[C@@H](CCCCN)C(=O)NCC(=O)N[C@H](C(N)=O)[C@@H](C)CC)NC(=O)[C@H](Cc4c[nH]c5ccccc45)NC(=O)[C@H](CC(C)C)NC(=O)[C@H](CCCCN)NC(=O)[C@H](CSSC[C@H](NC(=O)[C@H]([C@@H](C)O)NC(=O)[C@H](Cc4c[nH]c5ccccc45)NC(=O)[C@H](CCCC)NC(=O)[C@H](Cc4c[nH]c5ccccc45)NC(=O)[C@H](CCCCN)NC(=O)[C@H](CCC(N)=O)NC1=O)C(=O)N[C@@H](CC(=O)O)C(=O)N[C@@H](CO)C(=O)N[C@@H](CCCCN)C(=O)N[C@@H](CCCNC(=N)N)C(=O)N[C@@H](C)C(=O)N3)NC(=O)[C@H](CCCNC(=N)N)NC(=O)[C@H](CC(C)C)NC(=O)CNC(=O)[C@H](CCC(=O)O)NC2=O [compound 651] | 0.00314 |  |  |
| CCCC[C@@H]1NC(=O)[C@H](Cc2c[nH]c3ccccc23)NC(=O)[C@H](CCCCN)NC(=O)[C@H](CCC(N)=O)NC(=O)[C@@H](NC(=O)[C@H](Cc2ccc(O)cc2)NC(=O)[C@@H](N)CCCCNC(=O)CCOCCOCCOCCOCCOCCOCCOCCOCCOCCOCCOCCOCCN)CSSC[C@@H]2NC(=O)[C@@H]3CSSC[C@@H](C(=O)N[C@@H](CCCNC(=N)N)C(=O)N[C@@H](CCCCN)C(=O)N[C@@H](CCC(=O)O)C(=O)N[C@@H](Cc4c[nH]c5ccccc45)C(N)=O)NC(=O)[C@H](Cc4c[nH]c5ccccc45)NC(=O)[C@H](CC(C)C)NC(=O)[C@H](CCCCN)NC(=O)[C@H](CSSC[C@H](NC(=O)[C@H]([C@@H](C)O)NC(=O)[C@H](Cc4c[nH]c5ccccc45)NC1=O)C(=O)N[C@@H](CC(=O)O)C(=O)N[C@@H](CO)C(=O)N[C@@H](CCCCN)C(=O)N[C@@H](CCCNC(=N)N)C(=O)N[C@@H](C)C(=O)N3)NC(=O)[C@H](CCCNC(=N)N)NC(=O)[C@H](CC(C)C)NC(=O)CNC(=O)[C@H](CCC(=O)O)NC2=O [compound 458] |  | 38 | 202 |
| C#CC[C@H](N)C(=O)N[C@@H](Cc1ccc(O)cc1)C(=O)N[C@H]1CSSC[C@@H]2NC(=O)[C@@H]3CSSC[C@@H](C(=O)N[C@@H](CCCNC(=N)N)C(=O)N[C@@H](CCCCN)C(=O)N[C@@H](CCC(=O)O)C(=O)N[C@H](C(N)=O)[C@@H](C)CC)NC(=O)[C@H](Cc4c[nH]c5ccccc45)NC(=O)[C@H](CC(C)C)NC(=O)[C@H](CCC(N)=O)NC(=O)[C@H](CSSC[C@H](NC(=O)[C@H]([C@@H](C)O)NC(=O)[C@H](Cc4c[nH]c5ccccc45)NC(=O)[C@H](CCCC)NC(=O)[C@H](Cc4c[nH]c5ccccc45)NC(=O)[C@H](CCCCN)NC(=O)[C@H](CCC(N)=O)NC1=O)C(=O)N[C@@H](CC(=O)O)C(=O)N[C@@H](CO)C(=O)N[C@@H](CCCCN)C(=O)N[C@@H](CCCNC(=N)N)C(=O)N[C@@H](C)C(=O)N3)NC(=O)[C@H](CCCNC(=N)N)NC(=O)[C@H](CC(C)C)NC(=O)CNC(=O)[C@H](CCC(=O)O)NC2=O [compound 804] | 0.0353 |  |  |
